Assay results published in ChEMBL document CHEMBL5113478, “7-Azaindole, 2,7-diazaindole, and 1H-pyrazole as core structures for novel anticancer agents with potential chemosensitizing properties” (Eur J Med Chem, 2022).
Active and inactive are the calls of the source. The rule behind the calls is not given here.

Tests used:
SAOS-2 [1] = test: Antiproliferative activity against human SAOS-2 cells assessed as […] cell proliferation at 10 uM incubated for 48 hrs in presence of 15 uM of CDDP by WST-1 assay relative to control; assay type: functional
HeLa [2] = test: Antiproliferative activity against human HeLa cells assessed as […] cell proliferation at 10 uM incubated for 48 hrs in presence of 15 uM of CDDP by WST-1 assay relative to control; assay type: functional
HT-29 [3] = test: Antiproliferative activity against human HT-29 cells assessed as […] cell proliferation at 10 uM incubated for 48 hrs by WST-1 assay relative to control; assay type: functional
SAOS-2 [4] = test: Antiproliferative activity against human SAOS-2 cells assessed as […] cell proliferation at 10 uM incubated for 48 hrs by WST-1 assay relative to control; assay type: functional
HT-29 [5] = test: Antiproliferative activity against human HT-29 cells assessed as […] cell proliferation at 10 uM incubated for 48 hrs in presence of 15 uM of CDDP by WST-1 assay relative to control; assay type: functional
GBM = test: Cytotoxicity against patient-derived human GBM cells assessed as reduction in cell viability at 15 uM incubated for 48 hrs by MTT assay; assay type: functional
1321N1 [6] = test: Cytotoxicity against human 1321N1 cells assessed as reduction in cell viability at 15 uM incubated for 48 hrs by MTT assay; assay type: functional, cell-based
HeLa [7] = test: Antiproliferative activity against human HeLa cells assessed as […] cell proliferation at 10 uM incubated for 48 hrs by WST-1 assay relative to control; assay type: functional
A549 [8] = test: Antiproliferative activity against human A549 cells assessed as […] cell proliferation at 10 uM incubated for 48 hrs by WST-1 assay relative to control; assay type: functional
Jurkat [9] = test: Antiproliferative activity against human Jurkat cells assessed as […] cell proliferation at 10 uM incubated for 48 hrs by WST-1 assay relative to control; assay type: functional
1321N1 [10] = test: Chemo-sensitizing activity against human 1321N1 cells at 15 uM incubated for 48 hrs in presence of TMZ by MTT assay; assay type: functional, cell-based
Jurkat [11] = test: Antiproliferative activity against human Jurkat cells assessed as […] cell proliferation at 10 uM incubated for 48 hrs in presence of 2 uM of CDDP by WST-1 assay relative to control; assay type: functional
MCF7 [12] = test: Antiproliferative activity against human MCF7 cells assessed as […] cell proliferation at 10 uM incubated for 48 hrs by WST-1 assay relative to control; assay type: functional
PANC-1 [13] = test: Antiproliferative activity against human PANC-1 cells assessed as […] cell proliferation at 10 uM incubated for 48 hrs by WST-1 assay relative to control; assay type: functional
MOLT-4 [14] = test: Antiproliferative activity against human MOLT-4 cells assessed as […] cell proliferation at 10 uM incubated for 48 hrs in presence of 2 uM of CDDP by WST-1 assay relative to control; assay type: functional
MOLT-4 [15] = test: Antiproliferative activity against human MOLT-4 cells assessed as […] cell proliferation at 10 uM incubated for 48 hrs by WST-1 assay relative to control; assay type: functional
PANC-1 [16] = test: Antiproliferative activity against human PANC-1 cells assessed as […] cell proliferation at 10 uM incubated for 48 hrs in presence of 15 uM of CDDP by WST-1 assay relative to control; assay type: functional
A549 [17] = test: Antiproliferative activity against human A549 cells assessed as […] cell proliferation at 10 uM incubated for 48 hrs in presence of 15 uM of CDDP by WST-1 assay relative to control; assay type: functional
MCF7 [18] = test: Antiproliferative activity against human MCF7 cells assessed as […] cell proliferation at 10 uM incubated for 48 hrs in presence of 10 uM of CDDP by WST-1 assay relative to control; assay type: functional
A2780 [19] = test: Antiproliferative activity against human A2780 cells assessed as […] cell proliferation at 10 uM incubated for 48 hrs in presence of 2 uM of CDDP by WST-1 assay relative to control; assay type: functional
A2780 [20] = test: Antiproliferative activity against human A2780 cells assessed as […] cell proliferation at 10 uM incubated for 48 hrs by WST-1 assay relative to control; assay type: functional

CC(C)S(=O)(=O)c1ccc(-c2cnc3[nH]c(C(=O)N4CCc5ccccc5C4)cc3c2)cc1
Activity (SAOS-2 [1]): 57%
Activity (HeLa [2]): 57%
Cell viability relative to control (HT-29 [3]): 71%
Activity (SAOS-2 [4]): 71%
Activity (HT-29 [5]): 57%
Activity (GBM): 50%
Activity (1321N1 [6]): Active
Activity (HeLa [7]): 71%
Activity (A549 [8]): 71%
Activity (Jurkat [9]): 71%
Activity (1321N1 [10]): Active
Activity (Jurkat [11]): 57%
Activity (MCF7 [12]): 71%
Activity (PANC-1 [13]): 71%
Activity (MOLT-4 [14]): 57%
Activity (MOLT-4 [15]): 71%
Activity (PANC-1 [16]): 57%
Activity (A549 [17]): 57%
Activity (MCF7 [18]): 57%
Activity (A2780 [19]): 57%
Activity (A2780 [20]): 71%
